# Reference: PubChem BioAssay (NCI)
#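 Method: 48-hour compound exposure of cells in 96-well plates, five concentrations, linear interpolation of endpoints. GI50 = concentration required for 50% inhibition of growth. The concentration for full growth arrest is given as TGI.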
# Experiments:
# Assay in all cases: growth of human tumour cells (NCI), 48 h
# [1] = system: SK-MEL-28 melanoma
# [2] = system: KM12 colon
# [3] = system: SK-OV-3 ovarian
# [4] = system: NCI-H23 lung
# [5] = system: MALME-3M melanoma
# [6] = system: ACHN renal
# [7] = system: SF-539 CNS
# [8] = system: HL-60(TB) leukemia
# [9] = system: HCT-15 colon
# [10] = system: A498 renal
SMILES,GI50 [1] [µM],TGI [1] [µM],GI50 [2] [µM],TGI [2] [µM],GI50 [3] [µM],TGI [3] [µM],GI50 [4] [µM],TGI [4] [µM],GI50 [5] [µM],TGI [5] [µM],GI50 [6] [µM],TGI [6] [µM],GI50 [7] [µM],TGI [7] [µM],GI50 [8] [µM],TGI [8] [µM],GI50 [9] [µM],TGI [9] [µM],GI50 [10] [µM],TGI [10] [µM]
COc1ccc(C[n+]2c3ccccc3n3c4ccc(N)cc4ccc32)c(OC)c1OC,1.89,5.56,2.41,13.7,10.4,49.2,1.99,24.9,2.08,7.48,36.2,> 100,2.89,15.2,3.09,11.7,82.1,> 100,17.5,61.9
O=C1c2cccc3cc([N+](=O)[O-])cc(c23)C(=O)N1NC1=NCCN1,–,> 100,–,> 100,–,> 100,–,> 100,–,> 100,–,> 100,–,> 100,–,> 100,–,> 100,–,> 100
COc1cccc(C(=O)Nc2ccc(CN3CCc4nc5cc(OC)c(OC)cc5cc43)cc2)c1,7.15,> 100,2.09,5.29,18.5,> 100,4.5,25.4,4.91,27.6,3.08,> 100,5.51,23.8,4.92,27.7,3.32,19.3,1.67,9.07
Nc1ncnc2c1ncn2C1OC(CSC(F)(F)F)C(O)C1O (centres undefined),–,> 100,–,> 100,–,> 100,–,> 100,–,> 100,–,> 100,–,> 100,–,> 100,–,> 100,–,> 100
N#CC(C#N)=Cc1c(-c2ccccc2)[nH]c2ccccc12,3.57,> 45.8,0.66,27.5,5.57,> 80.7,4.65,> 66.3,15.8,> 100,7.07,> 55.9,2.1,9.12,1.62,> 20.2,0.906,> 47.3,2.97,22.4
NC(=O)c1cc(-c2ccncc2)cc(-c2ccccc2)c1N,> 25,> 25,> 25,> 25,11.5,> 25,> 25,> 25,> 25,> 25,7.4,> 25,10.8,> 25,> 25,> 25,19,> 25,4.64,21.9
COc1ccc(C2=Nc3ccccc3SC(C)C2)cc1 (centres undefined),–,> 100,–,> 100,–,> 100,–,> 100,–,> 100,–,> 100,–,> 100,–,> 100,–,> 100,–,> 100
NC1=NC(c2ccc(Cl)cc2)N(c2ccc(S(=O)(=O)Nc3ncccn3)cc2)C(N)=N1 (centres undefined),–,> 100,–,> 100,–,> 100,–,> 100,–,> 100,–,> 100,–,> 100,–,1.08,–,> 100,–,> 100
Cc1ccc(C2CC(c3ccc([N+](=O)[O-])cc3)=Nc3ccccc3S2)cc1 (centres undefined),–,94.3,–,75.2,–,> 100,–,77.4,–,> 100,–,> 100,–,71.9,–,43.4,–,46.2,–,77.1
Cc1c(C(=O)CC(=O)C(=O)Nc2c(C(C)C)cccc2C(C)C)[n+](=O)c2ccccc2n1[O-],–,48.3,–,15.7,–,40.1,–,34,–,18.8,–,15.3,–,17.5,–,6.91,–,8.43,–,49.6
CCNC(C)(C)C(SS)c1ccc(Br)cc1 (centres undefined),–,> 100,–,> 100,–,> 100,–,> 100,–,> 100,–,> 100,–,> 100,–,53,–,> 100,–,> 100
COC(=O)C1CC(=O)CCC1c1ccccc1 (centres undefined),–,> 100,–,> 100,–,> 100,–,> 100,–,> 100,–,> 100,–,> 100,–,> 100,–,> 100,–,> 100
CC[C@@]1(OC(=O)CN)C(=O)OCc2c1cc1n(c2=O)Cc2cc3cc4c(cc3nc2-1)OCO4,0.209,10.8,0.0346,0.296,< 0.01,0.0736,< 0.01,< 0.0128,< 0.01,0.459,< 0.01,< 0.01,< 0.01,< 0.01,< 0.01,–,0.0291,> 100,< 0.01,0.126
